Laboratory results as given in PubChem BioAssay AID248 (DTP/NCI, 2004).
“And” between values parts separate entries of the source, which are not always exact repeats. Equal entries are not always repeated. Toxic doses and inconclusive results are not listed. No stated cut-off is given here; in the data, active means T/C of 150% or more; inactive means T/C below 125%.

System: L1210 leukemia ip in BDF1 mice, survival T/C
Assay: NCI In Vivo Anticancer Drug Screen. Data for tumor model L1210 Leukemia (intraperitoneal) in B6D2F1 (BDF1) mice
Conditions: endpoint: mean survival time, higher = longer survival
Procedure, shortened: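 Antitumor effect is assessed in tumor-bearing animals. Survival in the compound arm is compared with a vehicle-dosed control arm and expressed as their quotient.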

[1] = dose: 100.0 mg/kg/injection, schedule: Q01DX001 (ip), vehicle: Klucel (hydroxypropylcellulose) (HPC)
[2] = dose: 200.0 mg/kg/injection, schedule: Q01DX001 (ip), vehicle: Klucel (hydroxypropylcellulose) (HPC)
[3] = dose: 100.0 mg/kg/injection, schedule: Q04DX002 (ip), vehicle: saline with Tween-80
[4] = dose: 100.0 mg/kg/injection, schedule: Q01DX009 (ip), vehicle: Klucel (hydroxypropylcellulose) (HPC)
[5] = dose: 200.0 mg/kg/injection, schedule: Q01DX009 (ip), vehicle: Klucel (hydroxypropylcellulose) (HPC)
[6] = dose: 100.0 mg/kg/injection, schedule: Q04DX003 (ip), vehicle: Klucel (hydroxypropylcellulose) (HPC)
[7] = dose: 200.0 mg/kg/injection, schedule: Q04DX003 (ip), vehicle: Klucel (hydroxypropylcellulose) (HPC)
[8] = dose: 400.0 mg/kg/injection, schedule: Q04DX003 (ip), vehicle: Klucel (hydroxypropylcellulose) (HPC)

Measured: T/C

COC(=O)C12OCC34C(CC5C(C)=C(O)C(=O)CC5(C)C3C(O)C1O)OC(=O)C(OC(=O)C=C(C)C)C24 (stereo not given)
inactive: dose: 0.78 mg/kg/injection, schedule: Q04DX002 (ip), vehicle: saline with Tween-80 94 % of control | dose: 1.56 mg/kg/injection, schedule: Q04DX002 (ip), vehicle: saline with Tween-80 102 % of control | dose: 3.13 mg/kg/injection, schedule: Q04DX002 (ip), vehicle: saline with Tween-80 105 % of control

O=C(CBr)c1cc2ncccc2c2ccccc12
inactive: dose: 12.5 mg/kg/injection, schedule: Q01DX009 (ip), vehicle: other 90 % of control | dose: 25.0 mg/kg/injection, schedule: Q01DX009 (ip), vehicle: other 94 % of control | dose: 50.0 mg/kg/injection, schedule: Q01DX009 (ip), vehicle: other 102 % of control

NC(=O)c1cc(Cl)cc(Cl)c1N
inactive: [1] 100 % of control | [2] 107 % of control | dose: 400.0 mg/kg/injection, schedule: Q01DX001 (ip), vehicle: Klucel (hydroxypropylcellulose) (HPC) 111 % of control

COc1cc(C(=O)O)cc(OC)c1OC(C)=O
inactive: dose: 100.0 mg/kg/injection, schedule: Q01DX009 (ip), vehicle: saline with Tween-80 104 % of control | dose: 200.0 mg/kg/injection, schedule: Q01DX009 (ip), vehicle: saline with Tween-80 98 % of control | dose: 400.0 mg/kg/injection, schedule: Q01DX009 (ip), vehicle: saline with Tween-80 88 % of control

O=c1[nH]cnc2nc(SCc3cccc([N+](=O)[O-])c3)[nH]c12
inactive: dose: 150.0 mg/kg/injection, schedule: Q01DX001 (ip), vehicle: other 89 % of control | dose: 300.0 mg/kg/injection, schedule: Q01DX001 (ip), vehicle: other 87 % of control

Nc1nc(N)c(CCCOc2ccccc2Cl)c(N)n1
inactive: [1] 102 % of control | [2] 102 % of control

CCP(=O)(CCP(=O)(c1ccccc1)c1ccccc1)c1ccccc1 (stereo not given)
inactive: dose: 25.0 mg/kg/injection, schedule: Q04DX002 (ip), vehicle: saline with Tween-80 97 % of control | dose: 50.0 mg/kg/injection, schedule: Q04DX002 (ip), vehicle: saline with Tween-80 103 % of control | [3] 106 % of control

OC1C2c3ccccc3C(c3c2cc(F)c2ccccc32)C1O (stereo not given)
inactive: dose: 37.5 mg/kg/injection, schedule: Q01DX001 (ip), vehicle: Klucel (hydroxypropylcellulose) (HPC) 102 % of control | dose: 75.0 mg/kg/injection, schedule: Q01DX001 (ip), vehicle: Klucel (hydroxypropylcellulose) (HPC) 96 % of control | dose: 150.0 mg/kg/injection, schedule: Q01DX001 (ip), vehicle: Klucel (hydroxypropylcellulose) (HPC) 104 % of control

CN=C(NC)c1cccc(NC(=O)/C=C\c2ccc(/C=C/C(=O)Nc3cccc(C(=NC)NC)c3)cc2)c1
inactive: dose: 0.56 mg/kg/injection, schedule: Q01DX Z (ip), vehicle: carboxymethylcellulose (CMC) 103 % of control | dose: 1.12 mg/kg/injection, schedule: Q01DX Z (ip), vehicle: carboxymethylcellulose (CMC) 103 % of control | dose: 2.25 mg/kg/injection, schedule: Q01DX Z (ip), vehicle: carboxymethylcellulose (CMC) 120 % of control

CCOP(=O)(CSCCc1ccccc1)OCC
inactive: dose: 100.0 mg/kg/injection, schedule: Q04DX003 (ip), vehicle: saline 92 % of control | dose: 200.0 mg/kg/injection, schedule: Q04DX003 (ip), vehicle: saline 103 % of control

COc1ccc(NC(=O)ON(C)C)cc1
inactive: dose: 100.0 mg/kg/injection, schedule: Q04DX002 (ip), vehicle: DMSO 111 % of control | dose: 200.0 mg/kg/injection, schedule: Q04DX002 (ip), vehicle: DMSO 108 % of control | dose: 400.0 mg/kg/injection, schedule: Q04DX002 (ip), vehicle: DMSO 101 % of control

O=c1cc(O)nc[nH]1
inactive: dose: 220.0 mg/kg/injection, schedule: Q01DX Z (oral), vehicle: methylcellulose (MC) 105 % of control | dose: 330.0 mg/kg/injection, schedule: Q01DX Z (oral), vehicle: methylcellulose (MC) 100 % of control | dose: 500.0 mg/kg/injection, schedule: Q01DX Z (oral), vehicle: methylcellulose (MC) 95 % of control

COC(=O)c1cc(N)ccc1Br
inactive: dose: 100.0 mg/kg/injection, schedule: Q04DX003 (sc), vehicle: olive oil, sesame oil, peanut oil 93 % of control | dose: 200.0 mg/kg/injection, schedule: Q04DX003 (sc), vehicle: olive oil, sesame oil, peanut oil 111 % of control | dose: 400.0 mg/kg/injection, schedule: Q04DX003 (sc), vehicle: olive oil, sesame oil, peanut oil 95 % of control

OC1CCC(CC2CCCCC2)CC1 (stereo not given)
inactive: dose: 200.0 mg/kg/injection, schedule: Q04DX003 (ip), vehicle: saline with Tween-80 92 % of control | dose: 400.0 mg/kg/injection, schedule: Q04DX003 (ip), vehicle: saline with Tween-80 91 % of control

CC(=O)OC(C)(C)C1CCC2(C)COC3(C)CC(=O)OC23C1 (stereo not given)
inactive: dose: 33.0 mg/kg/injection, schedule: Q04DX003 (ip), vehicle: saline 101 % of control | dose: 66.0 mg/kg/injection, schedule: Q04DX003 (ip), vehicle: saline 101 % of control

COc1cc2c(cc1OC)-c1oncc1CCC2
inactive: dose: 100.0 mg/kg/injection, schedule: Q01DX001 (ip), vehicle: carboxymethylcellulose (CMC) 95 % of control | dose: 200.0 mg/kg/injection, schedule: Q01DX001 (ip), vehicle: carboxymethylcellulose (CMC) 106 % of control | dose: 400.0 mg/kg/injection, schedule: Q01DX001 (ip), vehicle: carboxymethylcellulose (CMC) 88 % of control

COc1cc(CC2C(O)C3CCN2CC3)cc(OC)c1OC (stereo not given)
inactive: dose: 25.0 mg/kg/injection, schedule: Q04DX002 (ip), vehicle: saline 101 % of control | dose: 50.0 mg/kg/injection, schedule: Q04DX002 (ip), vehicle: saline 101 % of control | dose: 100.0 mg/kg/injection, schedule: Q04DX002 (ip), vehicle: saline 97 % of control and 104 % of control

CCC(CC)CC1CN2CCc3cc(OC)c(OC)cc3C2CC1(O)CC (stereo not given)
inactive: dose: 3.12 mg/kg/injection, schedule: Q01DX009 (ip), vehicle: Klucel (hydroxypropylcellulose) (HPC) 93 % of control | dose: 6.25 mg/kg/injection, schedule: Q01DX009 (ip), vehicle: Klucel (hydroxypropylcellulose) (HPC) 97 % of control | dose: 12.5 mg/kg/injection, schedule: Q01DX009 (ip), vehicle: Klucel (hydroxypropylcellulose) (HPC) 109 % of control | dose: 25.0 mg/kg/injection, schedule: Q01DX009 (ip), vehicle: Klucel (hydroxypropylcellulose) (HPC) 119 % of control | dose: 25.0 mg/kg/injection, schedule: Q04DX003 (ip), vehicle: Klucel (hydroxypropylcellulose) (HPC) 115 % of control | dose: 50.0 mg/kg/injection, schedule: Q01DX009 (ip), vehicle: Klucel (hydroxypropylcellulose) (HPC) 97 % of control | dose: 50.0 mg/kg/injection, schedule: Q04DX003 (ip), vehicle: Klucel (hydroxypropylcellulose) (HPC) 99 % of control

O=C(Nc1ccc([As](=O)(O)O)cc1)Nc1cccc(Cl)c1Cl
inactive: [4] 100 % of control | dose: 100.0 mg/kg/injection, schedule: Q04DX002 (ip), vehicle: Klucel (hydroxypropylcellulose) (HPC) 100 % of control | [5] 100 % of control | dose: 200.0 mg/kg/injection, schedule: Q04DX002 (ip), vehicle: Klucel (hydroxypropylcellulose) (HPC) 92 % of control | dose: 400.0 mg/kg/injection, schedule: Q04DX002 (ip), vehicle: Klucel (hydroxypropylcellulose) (HPC) 110 % of control

C#CC(C)(C)CC
inactive: dose: 100.0 mg/kg/injection, schedule: Q01DX009 (ip), vehicle: saline 111 % of control | dose: 200.0 mg/kg/injection, schedule: Q01DX009 (ip), vehicle: saline 97 % of control | dose: 400.0 mg/kg/injection, schedule: Q01DX009 (ip), vehicle: saline 122 % of control

COC(=O)c1ccccc1C(=O)OCC(C)(C)[N+](=O)[O-]
inactive: [6] 100 % of control | [7] 97 % of control | [8] 107 % of control

CC#CCCC(=O)OCCC
inactive: [3] 121 % of control | dose: 200.0 mg/kg/injection, schedule: Q04DX002 (ip), vehicle: saline with Tween-80 93 % of control | dose: 400.0 mg/kg/injection, schedule: Q04DX002 (ip), vehicle: saline with Tween-80 108 % of control

CCCCNC(c1ccc(C[N+]2(C)CCCC2)cc1)C(Cl)(Cl)Cl (stereo not given)
inactive: dose: 10.0 mg/kg/injection, schedule: Q01DX001 (ip), vehicle: saline 95 % of control | dose: 20.0 mg/kg/injection, schedule: Q01DX001 (ip), vehicle: saline 95 % of control

ON(Cc1ccccc1)Cc1ccccc1
inactive: [4] 98 % of control | [6] 103 % of control | [5] 107 % of control | [7] 102 % of control | dose: 400.0 mg/kg/injection, schedule: Q01DX009 (ip), vehicle: Klucel (hydroxypropylcellulose) (HPC) 98 % of control | [8] 100 % of control
